The values that follow come from patent US4667019A, “Azo dyes containing a triazolyl group for use in liquid crystalline materials” (Kernforschungszentrum Karlsruhe GmbH, priority 1986, dated 1987).

What all share (type): physicochemical
Series [1] in a line: degree of order S (dichroic ratio CR) in ZLI 1840 at room temperature. The arrangement: key: S = (CR-1)/(CR+2), with CR = E∥/E⊥ dichroic ratio. As to conditions: ZLI 1840 wide-range mixture (Merck). As to the method:
(§1) The degrees of order S and the solubilities L, both measured at room temperature in the ZLI 1840 wide-range mixture from Merck, are summarized in Table 1 for Examples 1-18. The degrees of order S and the solubilities L for Examples 19-32, measured at room temperature in the […] liquid crystal mixture from Merck, are summarized in Table 3.
(§2) The degree of order S was determined in accordance with the known equation S=(CR-1)/(CR+2), using commercial measuring cells with homogeneous edge orientation. The dichroic ratio CR was determined by measuring the extinctions E^.parallel. (measured using polarized light parallel to the preferred direction of the nematic phase) and E^.perp. (measured using polarized light perpendicular to the preferred direction of the nematic phase) and using the relationship CR=E^.parallel. /E^.perp. the dye concentration being chosen so that E^.parallel. was from 1 to 2. The measurements were carried out using a Beckman Acta CIII spectrophotometer.

Series [2] can be described thus: solubility L in ZLI 1840 at room temperature. As to conditions: ZLI 1840 (Merck), stirred 1 week. As to the method: as §1
(§3) The solubility was determined as follows: 50 mg of the particular dye were stirred into 1 ml of ZLI 1840 at room temperature for 1 week, and saturation of the soluton was determined by comparing extinction values.

Series [3] is described as follows: degree of order S (dichroic ratio CR) in ZLI 1957/5 at room temperature. The note with it: ZLI 1957/5 liquid crystal mixture (Merck). As to the method: as §1, §2
Series [4] can be described thus: solubility L in ZLI 1957/5 at room temperature. The note with it: ZLI 1957/5 liquid crystal mixture (Merck). As for the experimental part: as §1, §3
Series [5] is described as follows: light-stability, high-speed exposure of the measuring cell in a Suntest. As to conditions: 25° C. As for the experimental part:
The light-stability was determined by high-speed exposure of the measuring cell in a Suntest from Hanau, at 25° C. In this procedure, the decrease in E^.parallel. was measured. The initial extinction E^.parallel. and the exposure time E^.parallel.80% after which E^.parallel. has decreased to 80% are shown in Table 2 for Examples 5, 8, 9, 10, 11, 12, 13, 14 and 15. The percentage change in E^.parallel.0 is plotted against the exposure time in FIGS. 2, 3 and 4 for Examples 8, 11 and 15.

As for `CCCCNc1ccc(N=Nc2ccc(N=Nc3ccc(-n4nc5ccc(C)cc5n4)c(C)c3)c(C)c2)cc1` [Example 22], the “Degree of order S” value in series [1] is 0,77. Moreover, in series [2], the “Solubility L” value is given as over 5%.
As to `Cc1ccc2nn(-c3ccc(N=Nc4ccc(N=Nc5ccc(N(C)CC(C)C)cc5C)cc4C)cc3C)nc2c1` [Example 28], the “Degree of order S” value in series [3] is 0,72. Besides, the “Solubility L” value in series [4] is listed as 1,5%.
On to `CCC1CCC(c2ccc(COc3ccc(N=Nc4cc(C)c(N=Nc5ccc(-n6nc7ccc(C)cc7n6)c(C)c5)cc4C)c(C)c3)cc2)CC1` (stereo not shown) [Example 18], for which the “Degree of order S” value in series [1] is 0,77. Further, the “Solubility L” value in series [2] is recorded as 2,9%.
Regarding `Cc1ccc2nn(-c3ccc(N=Nc4ccc(N=Nc5ccc(N)cc5C)cc4C)cc3C)nc2c1` [Example 11], in series [5], the “exposure time E∥80% after which E∥ has decreased to 80%” value is recorded as 170 h.
Consider `Cc1nn(-c2cc(Br)c(N=Nc3ccc(N=Nc4ccc(N(C)C)cc4)cc3)c(Br)c2)nc1C` [Example 6], for which the “Degree of order S” value in series [1] is on record as 0,61. Also, the “Solubility L” value in series [2] is 1,8%.
Turning to `Cc1ccc2nn(-c3ccc(N=Nc4ccc(N=Nc5ccc(N(C)C)cc5C)cc4C)cc3C)nc2c1` [Example 26], the “Degree of order S” value in series [1] is 0,76. Further, the “Solubility L” value in series [2] is recorded as 2,0%.
For the compound `Cc1ccc2nn(-c3ccc(N=Nc4cc(C)c(N=Nc5ccc(OCc6ccccc6)cc5C)cc4C)cc3C)nc2c1` [Example 17], the “Degree of order S” value in series [1] is 0,74. Further, the “Solubility L” value in series [2] is 0,6%.
In the case of `CCCCN(C)c1ccc(N=Nc2cc(OC)c(N=Nc3ccc(-n4nc5ccc(C)cc5n4)c(C)c3)cc2OC)cc1` [Example 30], the “Degree of order S” value in series [3] is recorded as 0,67. For the same compound, the “Solubility L” value in series [4] is listed as 0,3%.
With `CCCCc1ccc2nn(-c3ccc(N=Nc4cc(C)c(N=Nc5ccc(N(C)C)cc5)cc4C)cc3C)nc2c1` [Example 14], the “exposure time E∥80% after which E∥ has decreased to 80%” value in series [5] worked out at 111 h. In addition, in series [1], the “Degree of order S” value is reported as 0,76. Moreover, the “Solubility L” value in series [2] was > 2,3%.
On the same counts, the results for `CCOC(=O)c1nn(-c2ccc(N=Nc3ccc(N=Nc4ccc(N(C)C)cc4)c4ccccc34)cc2)nc1C` [Example 8] are 27,5 h, 0,74 and 0,5%.
Turning to `CCOC(=O)c1nn(-c2ccc(N=Nc3cc(C)c(N=Nc4ccc(N(C)C)cc4)cc3C)cc2)nc1C` [Example 5], in series [5], the “exposure time E∥80% after which E∥ has decreased to 80%” value is recorded as 101 h. For the same compound, in series [1], the “Degree of order S” value was 0,73. In addition, the “Solubility L” value in series [2] is recorded as 0,2%.
Take `CCCCN(C)c1ccc(N=Nc2cc(C)c(N=Nc3ccc(-n4nc5ccc(C)cc5n4)c(C)c3)cc2OC)cc1` [Example 29]: the “Degree of order S” value in series [3] was 0,71. The “Solubility L” value in series [4] is given as 0,5%.
Consider `CCCCc1ccc2nn(-c3ccc(N=Nc4ccc(N=Nc5ccc(N(C)C)cc5)cc4C)cc3C)nc2c1` [Example 15], for which the “exposure time E∥80% after which E∥ has decreased to 80%” value in series [5] is 68 h. Moreover, the “Degree of order S” value in series [1] is 0,79. Moreover, in series [2], the “Solubility L” value is 2,8%.
With `Cc1ccc2nn(-c3cc(C)c(N=Nc4cc(C)c(N=Nc5ccc(N(C)C)cc5)cc4C)cc3C)nc2c1` [Example 9], in series [5], the “exposure time E∥80% after which E∥ has decreased to 80%” value is reported as 111 h. For the same compound, the “Degree of order S” value in series [1] is on record as 0,76. Further, in series [2], the “Solubility L” value is 0,5%.
For `Cc1nn(-c2cc(C#N)c(N=Nc3ccc(N=Nc4ccc(N(C)C)cc4)cc3)c(C#N)c2)nc1C` [Example 7], the “Degree of order S” value in series [1] was 0,74. Also, the “Solubility L” value in series [2] is < 0,1%.
On to `CCCCOc1ccc(N=Nc2ccc(N=Nc3ccc(-n4nc5ccc(C)cc5n4)c(C)c3)c(C)c2)c(C)c1` [Example 16], for which the “Degree of order S” value in series [1] is on record as 0,74. Moreover, the “Solubility L” value in series [2] was 0,5%.
Taken in the same sequence, the figures for `Cc1nn(-c2ccc(N=Nc3ccc(N=Nc4ccc(N(C)C)cc4)cc3)cc2)nc1C` [Example 3] were 0,74 and 0,4%.
For `CN(C)c1ccc(N=Nc2ccc(-n3nc4c(n3)CCCC4)cc2)cc1` [Example 2], the “Degree of order S” value in series [1] is 0,71. In series [2], the “Solubility L” value is reported as 1,4%.
For `Cc1ccc2nn(-c3ccc(N=Nc4ccc(N=Nc5ccc(N(C)C)cc5)cc4C)cc3C)nc2c1` [Example 21], in series [1], the “Degree of order S” value was 0,76. Moreover, the “Solubility L” value in series [2] is given as 2,8%.
Turning to `CCCCN(CCCC)c1ccc(N=Nc2ccc(N=Nc3ccc(-n4nc5ccc(C)cc5n4)c(C)c3)c(C)c2)cc1` [Example 13], the “exposure time E∥80% after which E∥ has decreased to 80%” value in series [5] worked out at 97 h. For the same compound, in series [1], the “Degree of order S” value is 0,74. Also, in series [2], the “Solubility L” value is listed as over 5%.
On the same counts, the results for `Cc1ccc2nn(-c3ccc(N=Nc4cc(C)c(N=Nc5ccc(N(C)C)cc5)cc4C)cc3)nc2c1` [Example 10] are 147 h, 0,73 and 0,6%.
As to `CCCCN(C)c1ccc(N=Nc2ccc(N=Nc3ccc(-n4nc5ccc(C)cc5n4)c(C)c3)c(C)c2)cc1` [Example 24], in series [1], the “Degree of order S” value is given as 0,77. Also, the “Solubility L” value in series [2] is over 5%.
Taken in the same sequence, the figures for `Cc1ccc2nn(-c3ccc(N=Nc4ccc(N=Nc5ccc(NCc6ccccc6)cc5)cc4C)cc3C)nc2c1` [Example 23] were 0,79 and 1,9%.
As for `CCCCc1ccc2nn(-c3ccc(N=Nc4cc(C)c(N=Nc5ccc(NC)c6ccccc56)cc4C)cc3C)nc2c1` [Example 31], the “Degree of order S” value in series [1] is reported as 0,70. Besides, the “Solubility L” value in series [2] is 2,0%.
`COc1cc(N=Nc2ccc(N(C)C)cc2)ccc1N=Nc1ccc(-n2nc(C)c(C)n2)cc1` [Example 4]: in series [1], the “Degree of order S” value is listed as 0,70. Further, in series [2], the “Solubility L” value is reported as 0,7%.
Turning to `CCCCOC(=O)c1ccc2nn(-c3ccc(N=Nc4cc(C)c(N=Nc5ccc(N(C)C)cc5)cc4C)cc3C)nc2c1` [Example 19], in series [1], the “Degree of order S” value is listed as 0,76. For the same compound, the “Solubility L” value in series [2] was 0,3%.
With `Cc1nn(-c2ccc(N=Nc3ccc(N4CCOCC4)cc3)cc2)nc1C` [Example 1], the “Degree of order S” value in series [1] is given as 0,64.
In the case of `CCCCc1ccc2nn(-c3ccc(N=Nc4cc(C)c(N=Nc5ccc(N(C)C)c6ccccc56)cc4C)cc3C)nc2c1` [Example 32], the “Degree of order S” value in series [1] was 0,65. The “Solubility L” value in series [2] is recorded as 0,1%.
Consider `CCCCN(C)c1ccc(N=Nc2cc(C)c(N=Nc3ccc(-n4nc5ccc(C)cc5n4)c(C)c3)cc2C)cc1` [Example 20], for which the “Degree of order S” value in series [3] is on record as 0,74. Moreover, in series [4], the “Solubility L” value is 2,0%.
Take `CCCCc1ccc2nn(-c3ccc(N=Nc4ccc(N=Nc5ccc(N(C)C)cc5C)cc4C)cc3C)nc2c1` [Example 27]: the “Degree of order S” value in series [1] is reported as 0,75. For the same compound, in series [2], the “Solubility L” value is on record as 3,9%.
Regarding `Cc1ccc2nn(-c3ccc(N=Nc4ccc(N=Nc5ccc(N(C)Cc6ccccc6)cc5)cc4C)cc3C)nc2c1` [Example 25], in series [1], the “Degree of order S” value is 0,76. Further, in series [2], the “Solubility L” value is 1,9%.
